Structures can show the parent of a compound that is named as a salt.
Assays:
GSK3α(h) = GSK3α(h) (Homo sapiens, UniProt P49840); assay: GSK3α radiometric kinase assay (33P-ATP, phospho GS2 peptide); type: biochemical; settings: read-out: IC50 GSK3α (enzyme assay)
Method: GSK3α(h) is incubated with 8 mM MOPS pH 7,0, 0,2 mM EDTA, 20 μM
[…](p)EDEEE (phosphor GS2 peptide), 10 mM Mg-acetate and [gamma-33P-ATP](specific activity approx. 500 cpm/Pmol, concentration as required). The reaction is initiated by the addition of the MgATP. After incubation for 40 minutes at the room temperature, the Reaction is stopped by the addition of 3% phosphoric acid solution. 10 μL of reaction is then spotted onto a P30 filtermat and washed three times for 5 minutes in 50 mM phosphoric acid and once in methanol prior to drying and scintillation counting.

GCN2 = GCN2 (Homo sapiens, UniProt Q9P2K8); assay: GCN2 enzyme assay (TR-FRET Lanthascreen, GFP-eIF2alpha phosphorylation); type: biochemical; settings: 10 μM ATP, 80 nM GFP-eIF2a, 30 nM GCN2
Method in brief: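 Kinase reaction with 10 μM ATP and 80 nM GFP-labelled eIF2alpha substrate at room temperature, stopped with EDTA. Phospho-eIF2alpha detected by TR-FRET between antibody and GFP-substrate, excitation at 340 nm.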

GCN2, sequence (Q9P2K8 whole entry, species assumed): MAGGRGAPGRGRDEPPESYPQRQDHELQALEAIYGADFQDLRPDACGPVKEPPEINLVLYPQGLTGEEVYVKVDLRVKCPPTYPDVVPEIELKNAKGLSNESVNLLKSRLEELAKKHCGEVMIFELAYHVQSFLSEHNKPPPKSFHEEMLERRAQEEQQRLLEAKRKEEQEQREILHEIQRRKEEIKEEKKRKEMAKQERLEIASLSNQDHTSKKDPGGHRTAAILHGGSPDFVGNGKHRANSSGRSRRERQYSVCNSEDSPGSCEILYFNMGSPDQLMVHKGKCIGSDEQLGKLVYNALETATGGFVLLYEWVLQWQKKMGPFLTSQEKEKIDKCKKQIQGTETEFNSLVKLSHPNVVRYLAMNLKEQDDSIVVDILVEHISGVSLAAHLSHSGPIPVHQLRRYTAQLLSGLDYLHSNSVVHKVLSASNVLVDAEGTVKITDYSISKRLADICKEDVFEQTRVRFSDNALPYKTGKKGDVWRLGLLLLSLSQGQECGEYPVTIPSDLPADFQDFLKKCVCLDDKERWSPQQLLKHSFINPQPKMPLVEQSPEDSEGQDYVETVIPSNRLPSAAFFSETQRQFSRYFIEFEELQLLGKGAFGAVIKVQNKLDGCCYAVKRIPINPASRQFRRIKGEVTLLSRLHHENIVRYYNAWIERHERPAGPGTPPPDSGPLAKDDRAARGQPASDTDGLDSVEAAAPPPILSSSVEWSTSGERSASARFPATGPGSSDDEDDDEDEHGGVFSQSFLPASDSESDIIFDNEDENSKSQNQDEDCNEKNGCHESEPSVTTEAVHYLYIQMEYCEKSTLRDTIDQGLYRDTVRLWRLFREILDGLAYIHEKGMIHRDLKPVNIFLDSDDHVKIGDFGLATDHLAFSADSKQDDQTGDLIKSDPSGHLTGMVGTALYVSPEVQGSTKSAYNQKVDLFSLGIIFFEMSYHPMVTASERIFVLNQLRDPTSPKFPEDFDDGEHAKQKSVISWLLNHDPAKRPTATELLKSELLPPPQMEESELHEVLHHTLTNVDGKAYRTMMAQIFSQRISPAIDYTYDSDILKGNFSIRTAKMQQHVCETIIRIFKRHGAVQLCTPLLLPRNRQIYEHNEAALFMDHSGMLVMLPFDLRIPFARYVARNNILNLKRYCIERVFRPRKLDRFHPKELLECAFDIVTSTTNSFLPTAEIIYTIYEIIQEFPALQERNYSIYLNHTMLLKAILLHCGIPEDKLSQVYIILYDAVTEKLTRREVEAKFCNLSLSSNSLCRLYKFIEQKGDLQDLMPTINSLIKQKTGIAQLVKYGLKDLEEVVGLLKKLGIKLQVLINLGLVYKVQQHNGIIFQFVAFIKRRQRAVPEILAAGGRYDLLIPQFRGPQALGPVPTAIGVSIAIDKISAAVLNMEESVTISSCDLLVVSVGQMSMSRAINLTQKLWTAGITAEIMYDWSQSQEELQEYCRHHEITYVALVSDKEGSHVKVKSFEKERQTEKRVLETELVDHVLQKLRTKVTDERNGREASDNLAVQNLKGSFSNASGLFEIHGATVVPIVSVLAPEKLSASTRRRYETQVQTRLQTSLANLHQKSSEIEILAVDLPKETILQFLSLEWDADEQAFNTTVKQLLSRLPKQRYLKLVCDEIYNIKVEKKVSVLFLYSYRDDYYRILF
GSK3α(h), sequence (P49840 whole entry): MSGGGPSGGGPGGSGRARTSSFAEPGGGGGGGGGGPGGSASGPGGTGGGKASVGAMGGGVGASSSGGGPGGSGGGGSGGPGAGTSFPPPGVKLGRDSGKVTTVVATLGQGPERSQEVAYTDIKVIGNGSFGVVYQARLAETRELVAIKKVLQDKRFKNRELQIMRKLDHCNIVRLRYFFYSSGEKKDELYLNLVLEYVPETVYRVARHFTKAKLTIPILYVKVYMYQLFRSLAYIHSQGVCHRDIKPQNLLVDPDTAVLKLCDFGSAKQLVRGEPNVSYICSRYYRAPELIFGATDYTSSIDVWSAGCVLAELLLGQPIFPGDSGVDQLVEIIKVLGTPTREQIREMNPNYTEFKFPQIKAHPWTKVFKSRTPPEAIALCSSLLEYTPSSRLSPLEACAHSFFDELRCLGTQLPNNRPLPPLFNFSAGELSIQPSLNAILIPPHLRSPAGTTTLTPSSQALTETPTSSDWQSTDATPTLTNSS

Row | Compound | IC50 (GSK3α(h)) | IC50 (GCN2)
1 | COc1ccc(-n2nnc3cnc(NC4C5CNCC54)nc32)cc1 (centres unmarked) [A37, (3-aza-bicyclo[3.1.0]hex-6-yl)-[3-(4-methoxy-phenyl)-3H-[1,2,3]triazolo[4,5-d]pyrimidin-5-yl]-amine hydrochloride] | – | 5 to 10 µM
2 | O[C@@H]1CC[C@@H](Nc2ncc3nnn(-c4ccc(Br)cc4)c3n2)C1 (relative stereo) [A29, trans-3-[3-(4-bromo-phenyl)-3H-[1,2,3]triazolo[4,5-d]pyrimidin-5-ylamino]cyclopentanol] | – | < 1 µM
3 | COc1ccc(-n2nnc3cnc(N[C@@H]4CCN(S(C)(=O)=O)C4)nc32)cc1 [A269a, ((R)-1-Methanesulfonyl-pyrrolidin-3-yl)-[3-(4-methoxy-phenyl)-3H-[1,2,3]triazolo[4,5-d]pyrimidin-5-yl]-amine] | – | < 1 µM
4 | COc1ccc(-n2nnc3cnc(N[C@@H]4CCOC4)nc32)cc1 [A98, [3-(4-methoxy-phenyl)-3H-[1,2,3]triazolo[4,5-d]pyrimidin-5-yl]-(R)-tetrahydrofuran-3-yl-amine] | – | < 1 µM
5 | COCCOc1ccc(-n2nnc3cnc(NCCCc4ccccn4)nc32)cc1 [A68, {3-[4-(2-methoxy-ethoxy)-phenyl]-3H-[1,2,3]triazolo[4,5-d]pyrimidin-5-yl}-(3-pyridin-2-yl-propyl)-amine] | – | < 1 µM
6 | COc1ccc(-n2nnc3cnc(NCCCN4CCN(C)CC4)nc32)cc1 [A13, [3-(4-methoxy-phenyl)-3H-[1,2,3]triazolo[4,5-d]pyrimidin-5-yl]-[3-(4-methyl-piperazin-1-yl)-propyl]-amine] | – | 1 to 5 µM
7 | COCCOc1ccc(-n2nnc3cnc(N[C@@H]4CC[C@H](C(N)=O)C4)nc32)cc1 [A166, (1S,3R)-3-{3-[4-(2-methoxy-ethoxy)-phenyl]-3H-[1,2,3]triazolo[4,5-d]pyrimidin-5-ylamino}-cyclopentanecarboxylic acid amide] | – | < 1 µM
8 | COc1ccc(-n2nnc3cnc(N[C@H]4CC[C@H](NC(=O)OC(C)(C)C)C4)nc32)cc1 (racemic) [A35, {trans-3-[3-(4-methoxy-phenyl)-3H-[1,2,3]triazolo[4,5-d]pyrimidin-5-ylamino]-cyclopentyl}-carbamic acid tert-butyl ester] | – | 5 to 10 µM

Second part, the compound after the results:

Row | IC50 (GSK3α(h)) | IC50 (GCN2) | Compound
9 | < 1 µM | < 1 µM | NC(=O)[C@H]1CC[C@@H](Nc2ncc3nnn(-c4ccc5nsnc5c4)c3n2)C1 [A172, (1S,3R)-3-(3-benzo[1,2,5]thiadiazol-5-yl-3H-[1,2,3]triazolo[4,5-d]pyrimidin-5-ylamino)-cyclopentanecarboxylic acid amide]
10 | < 1 µM | < 1 µM | NC(=O)[C@@H]1CC[C@@H](Nc2ncc3nnn(-c4ccc5nsnc5c4)c3n2)C1 [A174, (1R,3R)-3-(3-benzo[1,2,5]thiadiazol-5-yl-3H-[1,2,3]triazolo[4,5-d]pyrimidin-5-ylamino)-cyclopentanecarboxylic acid amide]
11 | < 1 µM | < 1 µM | NC(=O)[C@H]1CC[C@@H](Nc2ncc3nnn(-c4ccc(N5CCCC5)cc4)c3n2)C1 [A138, (1S,3R)-3-[3-(4-pyrrolidin-1-yl-phenyl)-3H-[1,2,3]triazolo[4,5-d]pyrimidin-5-ylamino]-cyclopentanecarboxylic acid amide]
12 | < 1 µM | < 1 µM | COc1ccc(-n2nnc3cnc(N[C@@H]4CCN(S(N)(=O)=O)C4)nc32)cc1 [A270, (R)-3-[3-(4-methoxy-phenyl)-3H-[1,2,3]triazolo[4,5-d]pyrimidin-5-ylamino]-pyrrolidine-1-sulfonic acid amide]
13 | < 1 µM | < 1 µM | O[C@@H]1CC[C@@H](Nc2ncc3nnn(-c4ccc(-c5cnn(CCc6nnn[nH]6)c5)cc4)c3n2)C1 (relative stereo) [A266, trans-3-[3-(4-{1-[2-(1H-Tetrazol-5-yl)-ethyl]-1H-pyrazol-4-yl}-phenyl)-3H-[1,2,3]triazolo[4,5-d]pyrimidin-5-ylamino]-cyclopentanol]
14 | < 1 µM | < 1 µM | COc1ccc(-n2nnc3cnc(NCCCC(N)=O)nc32)cc1 [A142, 4-[3-(4-methoxy-phenyl)-3H-[1,2,3]triazolo[4,5-d]pyrimidin-5-ylamino]-butyramide]
